US6737383B1, “Herbicidal oxadiazolidines” (priority 1999, dated 2004)

What was measured:
velvetleaf = experiment: Test B pre/postemergence velvetleaf; format: in vivo, Abutilon theophrasti
Summary of the method: (§1)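 Herbicidal effect was estimated by eye on a ten-point control scale after plants spent twelve to sixteen days in a greenhouse following soil or foliar treatment. Foliar sprays targeted plants at one to four leaves; all doses were formulated in a non-phytotoxic solvent with surfactant.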

rape = experiment: Test B pre/postemergence rape; format: in vivo, Brassica napus
Summary of the method: as §1

surinam grass = experiment: Test B pre/postemergence surinam grass; format: in vivo, Brachiaria decumbens
Summary of the method: as §1

pigweed = experiment: Test B pre/postemergence pigweed; format: in vivo, Amaranthus retroflexus
Summary of the method: as §1

sugar beet = experiment: Test B pre/postemergence sugar beet; format: in vivo, Beta vulgaris
Summary of the method: as §1

cocklebur = experiment: Test B pre/postemergence cocklebur; format: in vivo, Xanthium strumarium
Summary of the method: as §1

purple nutsedge = experiment: Test B pre/postemergence purple nutsedge; format: in vivo, Cyperus rotundus
Summary of the method: as §1

duck salad = experiment: Test B flood test duck salad; format: in vivo, Heteranthera limosa
Summary of the method: (§2)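 Read-out is a visual response score from 0 (no effect) to 10 (complete control), assigned by comparison with untreated controls. Treatment was applied at the 2-leaf stage, and plants stayed in the greenhouse for twelve to sixteen days before scoring.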

giant foxtail = experiment: Test B pre/postemergence giant foxtail; format: in vivo, Setaria faberii
Summary of the method: as §1

morningglory = experiment: Test B pre/postemergence morningglory; format: in vivo, Ipomoea hederacea
Summary of the method: as §1

bedstraw = experiment: Test B pre/postemergence bedstraw; format: in vivo, Galium aparine
Summary of the method: as §1

blackgrass = experiment: Test B pre/postemergence blackgrass; format: in vivo, Alopecurus myosuroides
Summary of the method: as §1

bamyardgrass = experiment: Test B flood test barnyardgrass; format: in vivo, Echinochloa crus-galli
Summary of the method: as §2

rice = experiment: Test B flood test rice; format: in vivo, Oryza sativa
Summary of the method: as §2

corn = experiment: Test B pre/postemergence corn; format: in vivo, Zea mays
Summary of the method: as §1

[1] = Preemergence, Rate 62 g/ha, scale of 0 to 10 where 0 is no effect and 10 is complete control
[2] = Preemergence, Rate 250 g/ha, scale of 0 to 10 where 0 is no effect and 10 is complete control
[3] = Preemergence, Rate 500 g/ha, scale of 0 to 10 where 0 is no effect and 10 is complete control
[4] = Rate 62 g/ha, Postemergence, scale 0 to 10 (0 no effect, 10 complete control)
[5] = Rate 125 g/ha, Postemergence, scale of 0 to 10 where 0 is no effect and 10 is complete control
[6] = Rate 250 g/ha, Postemergence, scale of 0 to 10 where 0 is no effect and 10 is complete control
[7] = Rate 500 g/ha, Postemergence, scale 0 to 10, 0 no effect, 10 complete control
[8] = Rate 62 g/ha, headed Pre-emergence (flood test species), scale 0 to 10 (0 no effect, 10 complete control)
[9] = Rate 125 g/ha, Pre-emergence, flood test species, scale 0 to 10 where 0 is no effect and 10 is complete control
[10] = Rate 250 g/ha, Pre-emergence, flood-test species, scale 0 to 10, 0 is no effect, 10 is complete control
[11] = Rate 500 g/ha, Pre-emergence, flood test species, scale 0 to 10 (0 no effect, 10 complete control)

With CC(C)n1c(=O)on(C(=O)N(c2ccc(Cl)cc2Cl)C2CCC2)c1=O [Compound 319] the “Velvetleaf plant response rating” value (velvetleaf; [1]) was 0, the “Velvetleaf plant response rating (0 to 10 scale)” value (velvetleaf; Preemergence, Rate 125 g/ha) was 0 and the “Velvetleaf plant response rating” value (velvetleaf; [2]) was 0. The “Velvetleaf plant response rating” value (velvetleaf; [3]) was 0, the “Velvetleaf plant response rating” value (velvetleaf; [4]) was 0 and the “Velvetleaf plant response rating” value (velvetleaf; [5]) was 0. The “Plant response rating, Velvetleaf” value (velvetleaf; [6]) was 0, the “Rape plant response rating” value (rape; [1]) was 0 and the “Rape plant response rating (0 to 10 scale)” value (rape; Preemergence, Rate 125 g/ha) was 0. For the same compound, the “Rape plant response rating” value (rape; [2]) was 0, the “Rape plant response rating” value (rape; [3]) was 0 and the “Rape plant response rating” value (rape; [4]) was 0. For the same compound, the “Rape plant response rating” value (rape; [5]) was 0, the “Plant response rating, Rape” value (rape; [6]) was 0 and the “B. signalgrass plant response rating” value (surinam grass; [1]) was 0. The “B. signalgrass plant response rating (0 to 10 scale, 0 is no effect, 10 is complete control)” value (surinam grass; Preemergence, Rate 125 g/ha) was 0, the “B. signalgrass plant response rating” value (surinam grass; [2]) was 2 and the “B. signalgrass plant response rating” value (surinam grass; [3]) was 3. For the same compound, the “B. signalgrass plant response rating” value (surinam grass; [4]) was 0, the “B. signalgrass plant response rating” value (surinam grass; [5]) was 0 and the “Plant response rating, B. signalgrass” value (surinam grass; [6]) was 0. For the same compound, the “B. signalgrass plant response rating” value (surinam grass; [7]) was 0, the “Redroot pigweed plant response rating” value (pigweed; [1]) was 0 and the “Redroot pigweed plant response rating (0 to 10 scale)” value (pigweed; Preemergence, Rate 125 g/ha) was 0. For the same compound, the “Redroot pigweed plant response rating” value (pigweed; [2]) was 0, the “Redroot pigweed plant response rating” value (pigweed; [3]) was 0 and the “Redroot pigweed plant response rating” value (pigweed; [4]) was 0. The “Redroot pigweed plant response rating” value (pigweed; [5]) was 0, the “Plant response rating, Redroot pigweed” value (pigweed; [6]) was 0 and the “Sugarbeets plant response rating” value (sugar beet; [1]) was 0. The “Sugarbeets plant response rating (0 to 10 scale)” value (sugar beet; Preemergence, Rate 125 g/ha) was 0, the “Sugarbeets plant response rating” value (sugar beet; [2]) was 0 and the “Sugarbeets plant response rating” value (sugar beet; [3]) was 0. For the same compound, the “Sugarbeets plant response rating” value (sugar beet; [4]) was 0, the “Sugarbeets plant response rating” value (sugar beet; [5]) was 0 and the “Plant response rating, Sugarbeets” value (sugar beet; [6]) was 0. For the same compound, the “Cocklebur plant response rating” value (cocklebur; [1]) was 0, the “Cocklebur plant response rating (0 to 10 scale)” value (cocklebur; Preemergence, Rate 125 g/ha) was 0 and the “Cocklebur plant response rating” value (cocklebur; [2]) was 0. The “Cocklebur plant response rating” value (cocklebur; [3]) was 0, the “Cocklebur plant response rating” value (cocklebur; [4]) was 0 and the “Cocklebur plant response rating” value (cocklebur; [5]) was 0. The “Plant response rating, Cocklebur” value (cocklebur; [6]) was 0, the “Cocklebur plant response rating” value (cocklebur; [7]) was 0 and the “Nutsedge plant response rating” value (purple nutsedge; [1]) was 0. For the same compound, the “Nutsedge plant response rating (0 to 10 scale)” value (purple nutsedge; Preemergence, Rate 125 g/ha) was 0, the “Nutsedge plant response rating” value (purple nutsedge; [2]) was 0 and the “Nutsedge plant response rating” value (purple nutsedge; [3]) was 0. For the same compound, the “Nutsedge plant response rating” value (purple nutsedge; [4]) was 0, the “Nutsedge plant response rating” value (purple nutsedge; [5]) was 0 and the “Plant response rating, Nutsedge” value (purple nutsedge; [6]) was 0. The “Ducksalad plant response rating” value (duck salad; [8]) was 0, the “Ducksalad plant response rating” value (duck salad; [9]) was 0 and the “Ducksalad plant response rating” value (duck salad; [10]) was 0. The “Ducksalad plant response rating” value (duck salad; [11]) was 0, the “Giant foxtail plant response rating” value (giant foxtail; [1]) was 6 and the “Giant foxtail plant response rating (0 to 10 scale)” value (giant foxtail; Preemergence, Rate 125 g/ha) was 7. For the same compound, the “Giant foxtail plant response rating” value (giant foxtail; [2]) was 9, the “Giant foxtail plant response rating” value (giant foxtail; [3]) was 9 and the “Giant foxtail plant response rating” value (giant foxtail; [4]) was 0. For the same compound, the “Giant foxtail plant response rating” value (giant foxtail; [5]) was 0, the “Plant response rating, Giant foxtail” value (giant foxtail; [6]) was 0 and the “Morningglory plant response rating” value (morningglory; [1]) was 0. The “Morningglory plant response rating (0 to 10 scale)” value (morningglory; Preemergence, Rate 125 g/ha) was 0, the “Morningglory plant response rating” value (morningglory; [2]) was 0 and the “Morningglory plant response rating” value (morningglory; [3]) was 0. For the same compound, the “Morningglory plant response rating” value (morningglory; [4]) was 2, the “Morningglory plant response rating” value (morningglory; [5]) was 2 and the “Plant response rating, Morningglory” value (morningglory; [6]) was 4. For the same compound, the “Bedstraw plant response rating” value (bedstraw; [1]) was 0, the “Bedstraw plant response rating (0 to 10 scale)” value (bedstraw; Preemergence, Rate 125 g/ha) was 0 and the “Bedstraw plant response rating” value (bedstraw; [2]) was 0. For the same compound, the “Bedstraw plant response rating” value (bedstraw; [3]) was 7, the “Bedstraw plant response rating” value (bedstraw; [4]) was 0 and the “Bedstraw plant response rating” value (bedstraw; [5]) was 0. The “Blackgrass plant response rating” value (blackgrass; [1]) was 0, the “Blackgrass plant response rating (0 to 10 scale)” value (blackgrass; Preemergence, Rate 125 g/ha) was 0 and the “Blackgrass plant response rating” value (blackgrass; [2]) was 2. For the same compound, the “Blackgrass plant response rating” value (blackgrass; [3]) was 4, the “Blackgrass plant response rating” value (blackgrass; [4]) was 0 and the “Blackgrass plant response rating” value (blackgrass; [5]) was 0. For the same compound, the “Plant response rating, Blackgrass” value (blackgrass; [6]) was 0, the “Blackgrass plant response rating” value (blackgrass; [7]) was 3 and the “Barnyardgrass plant response rating” value (bamyardgrass; [8]) was 0. For the same compound, the “Barnyardgrass plant response rating” value (bamyardgrass; [9]) was 0, the “Barnyardgrass plant response rating” value (bamyardgrass; [10]) was 0 and the “Barnyardgrass plant response rating” value (bamyardgrass; [11]) was 2. The “Rice plant response rating” value (rice; [8]) was 0, the “Rice plant response rating” value (rice; [9]) was 0 and the “Rice plant response rating” value (rice; [10]) was 0. For the same compound, the “Rice plant response rating” value (rice; [11]) was 0, the “Corn plant response rating” value (corn; [1]) was 0 and the “Corn plant response rating (0 to 10 scale)” value (corn; Preemergence, Rate 125 g/ha) was 0. For the same compound, the “Corn plant response rating” value (corn; [2]) was 0, the “Corn plant response rating” value (corn; [3]) was 0 and the “Corn plant response rating” value (corn; [4]) was 0. For the same compound, the “Corn plant response rating” value (corn; [5]) was 0, the “Plant response rating, Corn” value (corn; [6]) was 0 and the “Corn plant response rating” value (corn; [7]) was 0.
